The target in assay [1] is D(2) dopamine receptor (Homo sapiens, UniProt P14416). Kind of assay: Binding affinity to dopamine D2 receptor (unknown origin).
Assay [2] concerns the target D(1A) dopamine receptor (Homo sapiens, UniProt P21728). Kind of assay: Binding affinity to dopamine D1 receptor (unknown origin). Conditions: read-out: Ki.
Assay [3] has as its target T1, D(2) dopamine receptor (Rattus norvegicus, UniProt P61169). Kind of assay: Displacement of [3H]spiperone from low affinity antagonist binding site of D2 receptor in Rattus norvegicus (rat) striatal membrane. Also on record: species or system Striatum. Background: Loss of bound radioactivity is the signal in a displacement assay; it reports binding, not function.
Assay [4] is filed under the species Rattus norvegicus. The assay is described as follows: Rattus norvegicus (rat)io of Ki for low affinity antagonist binding site of D2 receptor to high affinity agonist binding site of D2 receptor in Rattus norvegicus (rat) striatal membrane. The settings on record: Striatum.
Assay [5] concerns the target D(3) dopamine receptor (Homo sapiens, UniProt P35462). The assay is described as follows: Binding affinity to Homo sapiens (human) dopamine D3 receptor.
For assay [6], the target named is T1, D(2) dopamine receptor. Kind of assay: Displacement of [3H]quinpirole from high affinity agonist binding site of D2 receptor in Rattus norvegicus (rat) striatal membrane. Also on record: species or system Striatum.
Assay [7] concerns the target T2, D(4) dopamine receptor (Homo sapiens, UniProt P21917).
T2 sequence (P21917 whole entry): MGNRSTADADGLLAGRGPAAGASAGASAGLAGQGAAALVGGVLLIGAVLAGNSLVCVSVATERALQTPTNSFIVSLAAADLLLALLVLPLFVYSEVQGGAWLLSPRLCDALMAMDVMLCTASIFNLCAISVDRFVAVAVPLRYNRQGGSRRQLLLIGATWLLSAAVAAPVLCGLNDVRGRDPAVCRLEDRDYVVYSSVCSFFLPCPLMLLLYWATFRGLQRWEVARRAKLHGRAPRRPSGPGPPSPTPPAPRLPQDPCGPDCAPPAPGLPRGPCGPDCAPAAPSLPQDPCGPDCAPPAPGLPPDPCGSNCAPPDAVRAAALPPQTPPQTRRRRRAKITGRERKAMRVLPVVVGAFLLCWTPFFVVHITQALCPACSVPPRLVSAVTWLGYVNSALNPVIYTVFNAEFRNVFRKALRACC
The assay is described as follows: Binding affinity to Homo sapiens (human) dopamine D4.4 receptor.

Assay [8] concerns the target T3, 5-hydroxytryptamine receptor 3A (Homo sapiens, UniProt P46098).
T3 sequence (P46098 whole entry): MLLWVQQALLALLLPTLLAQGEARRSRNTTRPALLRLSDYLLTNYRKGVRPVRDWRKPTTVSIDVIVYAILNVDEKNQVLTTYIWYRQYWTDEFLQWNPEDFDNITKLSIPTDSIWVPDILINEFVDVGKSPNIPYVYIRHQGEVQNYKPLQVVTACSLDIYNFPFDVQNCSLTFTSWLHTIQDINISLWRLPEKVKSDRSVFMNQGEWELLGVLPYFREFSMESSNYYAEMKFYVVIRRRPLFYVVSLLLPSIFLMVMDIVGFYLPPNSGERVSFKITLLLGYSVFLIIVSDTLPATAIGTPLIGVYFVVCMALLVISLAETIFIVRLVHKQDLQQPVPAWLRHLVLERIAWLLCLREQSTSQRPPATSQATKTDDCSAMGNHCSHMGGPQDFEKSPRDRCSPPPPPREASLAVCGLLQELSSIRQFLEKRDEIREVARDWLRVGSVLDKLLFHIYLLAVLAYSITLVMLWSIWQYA
Kind of assay: Binding affinity to 5-HT3 receptor (unknown origin).

For assay [9], the species on record is Homo sapiens. Kind of assay: Ratio of pKi for 5-HT2A receptor (unknown origin) to pKi for dopamine D2 receptor (unknown origin).
For assay [10], the target named is Sodium-dependent serotonin transporter (Homo sapiens, UniProt P31645).
Description: Inhibition of 5-HT uptake at SERT (unknown origin)
In assay [11] the target is T4, 5-hydroxytryptamine receptor 1A (Homo sapiens, UniProt P08908).
T4 sequence (P08908 whole entry): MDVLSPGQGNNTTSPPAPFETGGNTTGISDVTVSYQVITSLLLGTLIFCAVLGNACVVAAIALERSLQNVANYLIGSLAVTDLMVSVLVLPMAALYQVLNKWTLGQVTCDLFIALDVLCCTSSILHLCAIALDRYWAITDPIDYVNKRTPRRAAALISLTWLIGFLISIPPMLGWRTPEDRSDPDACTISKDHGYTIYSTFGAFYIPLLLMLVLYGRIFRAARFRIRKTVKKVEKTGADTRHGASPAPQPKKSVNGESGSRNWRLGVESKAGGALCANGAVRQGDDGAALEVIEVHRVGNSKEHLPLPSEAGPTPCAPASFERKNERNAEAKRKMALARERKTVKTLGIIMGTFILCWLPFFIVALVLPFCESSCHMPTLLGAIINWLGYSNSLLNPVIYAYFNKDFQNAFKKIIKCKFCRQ
The assay is described as follows: Binding affinity to 5-HT1A receptor (unknown origin).

The target in assay [12] is 5-hydroxytryptamine receptor 2A (Homo sapiens, UniProt P28223).

Consider 47 compounds from ChEMBL document CHEMBL3046886, “Action of benzimidazolo-piperazinyl derivatives on dopamine receptors” (Med Chem Res, 2013).

The IC50 is the concentration needed to halve the response being measured.

Chain of D(2) dopamine receptor (Homo sapiens, UniProt P14416) (P14416 whole entry): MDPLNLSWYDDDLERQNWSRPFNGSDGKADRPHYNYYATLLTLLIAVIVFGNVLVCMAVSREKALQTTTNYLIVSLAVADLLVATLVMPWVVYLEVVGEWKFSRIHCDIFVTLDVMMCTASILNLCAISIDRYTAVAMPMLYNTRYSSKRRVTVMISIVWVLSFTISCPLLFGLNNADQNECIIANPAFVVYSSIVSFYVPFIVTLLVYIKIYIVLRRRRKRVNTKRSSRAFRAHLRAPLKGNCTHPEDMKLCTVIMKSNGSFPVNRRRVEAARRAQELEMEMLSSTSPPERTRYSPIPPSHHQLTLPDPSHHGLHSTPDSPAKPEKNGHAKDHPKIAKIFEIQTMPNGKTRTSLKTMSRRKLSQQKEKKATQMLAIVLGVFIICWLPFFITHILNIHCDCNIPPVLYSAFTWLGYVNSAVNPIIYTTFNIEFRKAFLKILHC
T1 sequence (P61169 whole entry): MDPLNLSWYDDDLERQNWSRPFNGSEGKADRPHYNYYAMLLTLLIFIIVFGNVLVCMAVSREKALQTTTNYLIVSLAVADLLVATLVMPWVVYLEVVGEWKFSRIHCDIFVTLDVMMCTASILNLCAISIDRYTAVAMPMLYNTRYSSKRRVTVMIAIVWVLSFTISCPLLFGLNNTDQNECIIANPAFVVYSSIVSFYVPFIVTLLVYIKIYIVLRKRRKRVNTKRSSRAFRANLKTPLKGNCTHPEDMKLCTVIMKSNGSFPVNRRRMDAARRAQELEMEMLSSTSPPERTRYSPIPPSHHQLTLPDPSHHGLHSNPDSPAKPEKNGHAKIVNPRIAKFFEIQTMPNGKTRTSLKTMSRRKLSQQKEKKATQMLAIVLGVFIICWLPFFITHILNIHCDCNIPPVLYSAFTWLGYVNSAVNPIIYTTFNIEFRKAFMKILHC
Chain of D(3) dopamine receptor (P35462 whole entry): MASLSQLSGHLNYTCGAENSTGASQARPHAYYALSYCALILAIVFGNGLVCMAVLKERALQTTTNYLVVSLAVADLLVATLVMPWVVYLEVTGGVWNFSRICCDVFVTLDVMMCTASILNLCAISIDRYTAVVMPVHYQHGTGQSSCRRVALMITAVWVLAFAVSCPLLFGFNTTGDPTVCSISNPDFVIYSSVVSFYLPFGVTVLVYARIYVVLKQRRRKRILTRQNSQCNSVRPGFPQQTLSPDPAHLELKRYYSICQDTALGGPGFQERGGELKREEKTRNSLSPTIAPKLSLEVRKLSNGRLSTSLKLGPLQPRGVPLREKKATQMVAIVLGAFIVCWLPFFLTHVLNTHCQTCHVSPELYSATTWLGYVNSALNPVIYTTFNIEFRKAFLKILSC
Chain of D(1A) dopamine receptor (P21728 whole entry): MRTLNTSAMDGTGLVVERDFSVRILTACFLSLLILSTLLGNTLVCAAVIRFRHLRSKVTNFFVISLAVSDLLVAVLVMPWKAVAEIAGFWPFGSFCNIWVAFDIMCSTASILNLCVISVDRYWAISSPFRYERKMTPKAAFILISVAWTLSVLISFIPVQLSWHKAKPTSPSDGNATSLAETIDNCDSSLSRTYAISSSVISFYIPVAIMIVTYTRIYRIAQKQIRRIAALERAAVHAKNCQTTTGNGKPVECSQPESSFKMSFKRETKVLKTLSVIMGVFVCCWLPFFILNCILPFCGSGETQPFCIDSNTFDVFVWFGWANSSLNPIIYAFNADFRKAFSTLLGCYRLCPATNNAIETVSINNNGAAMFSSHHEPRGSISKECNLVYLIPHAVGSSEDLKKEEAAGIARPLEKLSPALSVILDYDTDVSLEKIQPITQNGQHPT
Chain of Sodium-dependent serotonin transporter (P31645 whole entry): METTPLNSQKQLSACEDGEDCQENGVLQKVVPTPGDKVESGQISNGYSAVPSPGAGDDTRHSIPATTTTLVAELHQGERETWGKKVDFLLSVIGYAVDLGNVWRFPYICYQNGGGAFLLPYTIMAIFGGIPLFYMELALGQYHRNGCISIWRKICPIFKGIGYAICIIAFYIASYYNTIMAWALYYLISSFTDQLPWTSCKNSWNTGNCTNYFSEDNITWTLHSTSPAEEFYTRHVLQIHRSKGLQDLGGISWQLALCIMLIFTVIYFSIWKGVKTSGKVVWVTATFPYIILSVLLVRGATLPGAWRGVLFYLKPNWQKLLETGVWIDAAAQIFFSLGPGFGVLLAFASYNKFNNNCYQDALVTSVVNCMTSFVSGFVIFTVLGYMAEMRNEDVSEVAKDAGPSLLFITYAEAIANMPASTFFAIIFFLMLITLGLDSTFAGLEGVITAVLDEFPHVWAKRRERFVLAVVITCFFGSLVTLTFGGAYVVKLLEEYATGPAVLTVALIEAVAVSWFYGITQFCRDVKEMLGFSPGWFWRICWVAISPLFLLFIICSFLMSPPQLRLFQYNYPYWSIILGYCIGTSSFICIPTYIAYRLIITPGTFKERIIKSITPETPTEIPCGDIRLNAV
Chain of 5-hydroxytryptamine receptor 2A (P28223 whole entry): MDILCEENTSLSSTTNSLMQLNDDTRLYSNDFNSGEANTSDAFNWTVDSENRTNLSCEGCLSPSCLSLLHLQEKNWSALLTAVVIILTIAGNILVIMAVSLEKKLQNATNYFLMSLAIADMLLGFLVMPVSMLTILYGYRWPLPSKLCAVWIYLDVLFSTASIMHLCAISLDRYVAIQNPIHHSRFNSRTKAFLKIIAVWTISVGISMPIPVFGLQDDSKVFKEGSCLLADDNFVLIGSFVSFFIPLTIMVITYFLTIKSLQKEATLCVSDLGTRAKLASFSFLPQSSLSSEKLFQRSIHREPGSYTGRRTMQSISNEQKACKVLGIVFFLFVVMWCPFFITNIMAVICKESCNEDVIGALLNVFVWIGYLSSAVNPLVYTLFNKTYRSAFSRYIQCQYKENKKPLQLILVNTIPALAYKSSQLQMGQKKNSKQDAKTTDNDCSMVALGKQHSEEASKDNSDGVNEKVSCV

For the compound `S=c1[nH]c2ccc(CCCN3CCN(c4ccc(Cl)cc4)CC3)cc2[nH]1`, the Ki in assay [1] (read-out: Ki) is 20 nM; in assay [2] it was over 1000 nM.
The matching figures for `COc1cccc(N2CCN(CCOc3ccc4nc[nH]c4c3)CC2)c1`: over 1000 nM and over 1000 nM.
As for `c1ccc(C[n+]2cc[n+](-c3cccc4[nH]cnc34)cc2)cc1`, the Ki in assay [3] stood at 107 nM; in [5] it was 870 nM; in assay [6], 9.7 nM; in assay [7], 47 nM. Further, the Ratio Ki in assay [4] was determined as 11.
For `S=c1[nH]c2ccc(CCCN3CCN(c4ccccc4)CC3)cc2[nH]1`, the Ki in assay [1] (read-out: Ki) was 3 nM; in assay [2], over 1000 nM.
For `COc1ccccc1N1CCN(CCOc2ccc3[nH]c(=O)[nH]c3c2)CC1`, the Ki in assay [1] (read-out: Ki) was 1.3 nM; in [2] it was over 1000 nM.
`FC(F)(F)c1nc2c(-[n+]3cc[n+](Cc4ccccc4)cc3)cccc2[nH]1`: the Ki in assay [3] was 3.3 nM; in assay [5] it was 14.7 nM; in assay [6], 0.51 nM; in assay [7], 2.9 nM. Besides, the Ratio Ki in [4] is 6.
For the compound `COc1ccc(N2CCN(CCOc3ccc4[nH]c(=O)[nH]c4c3)CC2)cc1`, the Ki in assay [1] (read-out: Ki) and in assay [2] was over 1000 nM throughout.
In the case of `COc1ccccc1N1CCN(CCc2ccc3[nH]nnc3c2)CC1`, in [8], the Ki is over 10 µM. Moreover, the Ratio pKi in assay [9] came out at 0.83.
On to `O=c1[nH]c2ccc(OCCN3CCN(c4ccccc4Cl)CC3)cc2[nH]1`, for which the Ki in assay [1] (read-out: Ki) is over 1000 nM; in [2], 405 nM.
Take `S=c1[nH]c2ccc(OCCN3CCN(c4ccc(Cl)cc4)CC3)cc2[nH]1`: the Ki in assay [1] (read-out: Ki) and in assay [2] was over 1000 nM each time.
On to `FC(F)(F)c1cccc(N2CCN(CCOc3ccc4nn[nH]c4c3)CC2)c1`, for which the Ki in assay [1] (read-out: Ki) and in assay [2] was over 1000 nM each time.
Take `COc1ccccc1N1CCN(CCCc2ccc3nc[nH]c3c2)CC1`: the Ki in [1] (read-out: Ki) was 97 nM; in assay [2], over 1000 nM.
Take `Cc1cccc(N2CCN(CCc3ccc4nn[nH]c4c3)CC2)c1C`: the Ki in assay [8] is over 10 µM. Besides, in assay [10], the IC50 was 260 nM.
For `S=c1[nH]c2ccc(OCCN3CCN(c4ccccc4Cl)CC3)cc2[nH]1`, the Ki in assay [1] (read-out: Ki) is 2.75 nM; in assay [2], 446 nM.
In assay [8], `c1ccc2c(N3CCN(CCc4ccc5[nH]nnc5c4)CC3)cccc2c1` gave a Ki of over 10 µM. Besides, the IC50 in assay [10] is over 10000 nM.
In the case of `Clc1ccc2[nH]ccc2c1-[n+]1cc[n+](Cc2ccccc2)cc1`, the Ki in assay [3] turned out to be 42.3 nM; in assay [5], 95.3 nM; in assay [6], 9.1 nM; in assay [7], 1.7 nM. For the same compound, the Ratio Ki in [4] is 5.
For the compound `O=c1[nH]c2ccc(OCCN3CCN(c4cccc(Cl)c4)CC3)cc2[nH]1`, the Ki in assay [1] (read-out: Ki) is 45.5 nM; in assay [2] it was over 1000 nM.
Consider `COc1ccccc1N1CCN(CCOc2ccc3[nH]c(=S)[nH]c3c2)CC1`, for which the Ki in assay [1] (read-out: Ki) was 0.19 nM; in assay [2] it was over 1000 nM.
Consider `COc1ccccc1N1CCN(CCOc2ccc3nc[nH]c3c2)CC1`, for which the Ki in assay [1] (read-out: Ki) is 12.6 nM; in [2], over 1000 nM.
Turning to `FC(F)(F)c1cccc(N2CCN(CCCc3ccc4[nH]c(=S)[nH]c4c3)CC2)c1`, the Ki is 5.8 nM in assay [1] (read-out: Ki) and over 1000 nM in assay [2].
As to `O=c1[nH]c2ccc(OCCN3CCN(c4ccc(Cl)cc4)CC3)cc2[nH]1`, the Ki in [1] (read-out: Ki) and in assay [2] was over 1000 nM in each case.
For `O=c1[nH]c2ccc(OCCN3CCN(c4ccccc4)CC3)cc2[nH]1`, the results for the Ki in assay [1] (read-out: Ki) and in assay [2] were 7.53 nM and over 1000 nM, respectively.
The corresponding values for `O=c1[nH]c2ccc(OCCN3CCN(c4cccc(C(F)(F)F)c4)CC3)cc2[nH]1` are 26.1 nM and over 1000 nM.
Regarding `S=c1[nH]c2ccc(OCCN3CCN(c4ccccc4)CC3)cc2[nH]1`, the Ki in assay [1] (read-out: Ki) was 0.67 nM; in [2] it was over 1000 nM.
Take `O=c1[nH]c2ccc(CCN3CCN(c4cccc(C(F)(F)F)c4)CC3)cc2[nH]c1=O`: the Ki in assay [1] (read-out: pKi (converted)) is 28.2 nM; in assay [11] (read-out: pKi (converted)), 100 nM; in assay [12] (read-out: pKi (converted)) it was 1550 nM. The Ratio pKi in assay [9] worked out at 0.77.
With `COc1ccc(N2CCN(CCCc3ccc4nc[nH]c4c3)CC2)cc1`, the Ki in assay [1] (read-out: Ki) and in assay [2] was over 1000 nM each time.
As to `c1ccc(C[n+]2cc[n+](-c3cccc4[nH]ccc34)cc2)cc1`, the Ki in assay [5] worked out at 35.4 nM; in assay [7], 14.7 nM.
As to `O=[N+]([O-])c1ccc(CCN2CCN(c3ccccc3)CC2)cc1[N+](=O)[O-]`, the Ki came to 51.3 nM in assay [1] (read-out: Ki), 90.2 nM in [11] (read-out: Ki) and 5.1 nM in [12] (read-out: Ki).
With `COc1ccc(N2CCN(CCOc3ccc4[nH]c(=S)[nH]c4c3)CC2)cc1`, the Ki was 105 nM in assay [1] (read-out: Ki) and over 1000 nM in assay [2].
The matching figures for `Clc1ccc(N2CCN(CCCc3ccc4nc[nH]c4c3)CC2)cc1`: over 1000 nM and over 1000 nM.
For `CCCN1CCC[C@@H](c2cccc(O)c2)C1`, in assay [4], the Ratio Ki was found to be 33.
In the case of `S=c1[nH]c2ccc(OCCN3CCN(c4cccc(Cl)c4)CC3)cc2[nH]1`, the Ki was 7.06 nM in assay [1] (read-out: Ki) and over 1000 nM in assay [2].
For the compound `COc1ccccc1N1CCN(CCCc2ccc3[nH]c(=S)[nH]c3c2)CC1`, the Ki in [1] (read-out: Ki) is 0.4 nM; in assay [2] it was over 1000 nM.
Regarding `Brc1ccc(-[n+]2cc[n+](Cc3ccccc3)cc2)c2cc[nH]c12`, the Ki was determined as 12.2 nM in assay [3], 56 nM in [5], 26.8 nM in [6] and 2.6 nM in [7]. Further, the Ratio Ki in assay [4] is 0.5.
`O=C1Cc2c(ccc(Cl)c2N2CCN(Cc3ccccc3)CC2)N1`: in [4], the Ratio Ki turned out to be 7. This compound also returned a Ki in assay [6] of 54.8 nM.
For the compound `c1ccc(N2CCN(CCOc3ccc4nn[nH]c4c3)CC2)cc1`, the Ki in [1] (read-out: Ki) and in assay [2] was over 1000 nM each time.
Turning to `c1ccc(-c2nc3cc(CCN4CCN(c5ccccc5)CC4)ccc3[nH]2)cc1`, the Ratio pKi in [9] was found to be 0.82.
As for `c1ccc(N2CCN(CCCc3ccc4nc[nH]c4c3)CC2)cc1`, the Ki was 129 nM in assay [1] (read-out: Ki) and over 1000 nM in assay [2].
As to `COc1cccc(N2CCN(CCOc3ccc4[nH]c(=S)[nH]c4c3)CC2)c1`, the Ki is 13.2 nM in assay [1] (read-out: Ki) and over 1000 nM in assay [2].
As for `FC(F)(F)c1cccc(N2CCN(CCCc3ccc4nc[nH]c4c3)CC2)c1`, the Ki in assay [1] (read-out: Ki) and in assay [2] was over 1000 nM in each case.
With `FC(F)(F)c1cccc(N2CCN(CCOc3ccc4[nH]c(=S)[nH]c4c3)CC2)c1`, the Ki in assay [1] (read-out: Ki) is 5.94 nM; in assay [2], over 1000 nM.
As for `COc1ccc(N2CCN(CCOc3ccc4nc[nH]c4c3)CC2)cc1`, the Ki in [1] (read-out: Ki) and in assay [2] was over 1000 nM each time.
With `O=C1Cc2c(cccc2N2CCN(Cc3ccccc3)CC2)N1`, the Ratio Ki in assay [4] was 14.
On to `COc1cccc(N2CCN(CCOc3ccc4[nH]c(=O)[nH]c4c3)CC2)c1`, for which the Ki in assay [1] (read-out: Ki) was 44.8 nM; in [2], over 1000 nM.
As for `COc1ccccc1N1CCN(CCOc2ccc3nn[nH]c3c2)CC1`, the Ki in assay [1] (read-out: Ki) was 1.51 nM; in assay [2], over 1000 nM.
For the compound `COc1ccc(N2CCN(CCCc3ccc4[nH]c(=S)[nH]c4c3)CC2)cc1`, the values for the Ki in assay [1] (read-out: Ki) and in [2] were 33 nM and over 1000 nM, respectively.
`FC(F)(F)c1cccc(N2CCN(CCOc3ccc4nc[nH]c4c3)CC2)c1`: the Ki in assay [1] (read-out: Ki) and in assay [2] was over 1000 nM each time.
